Assay [1] has as its target 27Myc. Kind of assay: Fluorescence titration, binding of dye to 27Myc. Also noted: species or system human. Conditions: for Kd: read-out: Kd 27Mye. The protocol:
(§1) The following six kinds of G4-forming human-derived oligonucleotides were used:
the nuclease-sensitive element region of the c-Myc P1 promoter (27Myc);
(§2) Each of the eight kinds of oligonucleotides (22AG, 26Tel, 27Myc, 22Kit, 20Src, 18Ras, ssDNA, and dsDNA) was dissolved in the buffer TRS50K, PBS150K, PBS140KM, or PBS153NM at a concentration of 21 μM, and denatured by heating at 95° C. (or at 40° C. for 18Ras) for 0.5 minute using a thermal cycler, followed by cooling the resulting solution to 25° C. at a rate of 0.5° C./minute to allow refolding. Each solution was diluted to an appropriate oligonucleotide concentration, and its aliquots (50 μL each) were incubated at 25° C. for 30 minutes, followed by mixing each aliquot with 20 μL of a solution of a dye (ThT, ThT-DB, or ThT-HE; 10.5 μM) in the buffer TRS50K, PBS150K, PBS140KM, or PBS153NM. These mixtures were incubated at 25° C. for 30 minutes. An emission spectrum of each dye was obtained by excitation at 415 nm and monitoring of fluorescence between 450 nm and 600 nm.
(§3) FIGS. 3-4 to 3-6 show relative fluorescence intensities as the peaks of the emitted light at 485 nm (ThT and ThT-HE) or 500 nm (ThT-DB) with respect to the intensity of the dye that interacted with dsDNA, which was taken as 1. The X-axis represents the oligonucleotide concentration.

For assay [2], the target named is ssDNA. Kind of assay: Fluorescence titration, binding of dye to ssDNA standard. The settings on record: n.d. cells. Here is the method:
(§4) Besides these sequences, the following two kinds of oligonucleotides were used as standards:
(§5) The ssDNA was used as a single-stranded DNA, and the cDNA was used as a double-stranded DNA (dsDNA) by mixing with the ssDNA at a ratio of 1:1.
as §2, §3

In assay [3] the target is 26Tel. Kind of assay: Fluorescence titration, binding of dye to 26Tel. Further details: species or system human. Here is the method: as §1
(§6) telomere regions (22AG and 26Tel);
as §2, §3

Assay [4] concerns the target 18Ras. Kind of assay: Fluorescence titration, binding of dye to 18Ras. Further details: species or system human. The protocol: as §1
the 5′-untranslated region of a human NRAS proto-oncogene transcript (18Ras).
as §2, §3

The target of assay [5] is 20Src. Kind of assay: Fluorescence titration, binding of dye to 20Src. Further details: species or system human. Conditions: n.d. cells, read-out: Kd 20Sre. Here is the method: as §1
a proto-oncogene encoding a nonreceptor tyrosine kinase (20Src); and
as §2, §3

Assay [6] has as its target dsDNA. Kind of assay: Fluorescence titration, binding of dye to dsDNA standard. Conditions: for Kd: n.d. cells; for emission of fluorescence in the presence of dsDNA: dye 3 μM in PBS153NM, dsDNA 0-15 μM (FIG. 2). Here is the method: as §4, §5, §2, §3
For assay [7], the target named is 22Kit. Kind of assay: Fluorescence titration, binding of dye to 22Kit. Also noted: species or system human. The protocol:
as §1
the 87-nucleotide upstream region of the transcription initiation site of a proto-oncogene encoding tyrosine kinase (22Kit);
as §2, §3

Assay [8] concerns the target 22AG. Kind of assay: Fluorescence titration, binding of dye to 22AG. Also noted: species or system human. The protocol: as §1, §6, §2, §3
The test system of assay [9] is target G4. Kind of assay: Affinity of dyes to the target G4, overall comparison from Table 1. Format: binding, human. Conditions: according to Table 1. The protocol: as §2, §3

Read-outs that look alike come from different tables or passages of the source. Some results are limits rather than exact numbers.

As for `Cc1ccc2c(c1)sc(-c1ccc(N(C)C)cc1)[n+]2C.[Cl-]` [ThT, thioflavin T, reference compound], the Kd in assay [1] (buffer PBS150K) was 8.7 ± 1 µM; in assay [1] (buffer PBS153NM), 7.2 ± 0.6 µM; in assay [2] (buffer PBS150K), more than 40 µM; in [2] (buffer PBS153NM), more than 40 µM; in [3] (buffer PBS150K), 5 ± 0.8 µM; in assay [3] (buffer PBS153NM), 25.3 ± 1.5 µM. The dissociation constant Kd in [4] (buffer PBS150K) is 10.3 ± 3 µM; in [4] (buffer PBS153NM), 16 ± 4.2 µM; in assay [5] (buffer PBS150K), more than 40 µM; in [5] (buffer PBS153NM), more than 40 µM; in assay [6] (buffer PBS150K), more than 40 µM; in assay [6] (buffer PBS153NM), more than 40 µM. Moreover, the Kd in assay [7] (buffer PBS150K) is 12.3 ± 1.8 µM; in assay [7] (buffer PBS153NM), 7.2 ± 0.9 µM; in assay [8] (buffer PBS150K) it was 7.3 ± 0.3 µM; in assay [8] (buffer PBS153NM, n.d. cells), more than 40 µM. Further, the “emission of fluorescence in the presence of dsDNA” value in assay [6] is listed as “considerable level of emission of fluorescence”.
Consider `Cc1ccc2c(c1)sc(-c1ccc(N(C)C)cc1)[n+]2CCO` [ThT-HE], for which the “specificity to guanine quadruplex” value in assay [1] (27Myc versus dsDNA, PBS153NM (FIG. 2)) is “high specificity to guanine quadruplex”. For the same compound, the Kd in [1] (buffer PBS150K) was 23.9 ± 1.4 µM; in [1] (buffer PBS153NM), 13.7 ± 1.4 µM; in assay [2] (buffer PBS150K), more than 40 µM; in assay [2] (buffer PBS153NM) it was more than 40 µM; in assay [3] (buffer PBS150K), 10.6 ± 2.9 µM; in [3] (buffer PBS153NM, n.d. cells), more than 40 µM. The equilibrium dissociation constant (Kd) in assay [4] (buffer PBS150K) is 20.9 ± 2.8 µM; in [4] (buffer PBS153NM), 28.5 ± 9.7 µM; in assay [5] (buffer PBS150K), more than 40 µM; in [5] (buffer PBS153NM), more than 40 µM; in assay [6] (buffer PBS150K) it was more than 40 µM; in assay [6] (buffer PBS153NM), more than 40 µM. Further, the Kd in assay [7] (buffer PBS150K) was 40 ± 9 µM; in assay [7] (buffer PBS153NM) it was 12.3 ± 1.8 µM; in assay [8] (buffer PBS150K), 17.6 ± 3.6 µM; in [8] (buffer PBS153NM, n.d. cells), more than 40 µM. Besides, the “affinity to the target G4 compared with ThT” value in assay [9] is listed as “generally lower than affinity of ThT”. Moreover, in assay [6], the “emission of fluorescence in the presence of dsDNA” value is “hardly show fluorescence”.

For orientation: Kd means the equilibrium constant for the complex coming apart.

The values above are taken from US10597719B2, “Detection kit and simple method for detecting target nucleic acids” (National University Corporation Gunma University, priority 2015, dated 2020).
